Literature values, collected in US20050096391A1 (priority 2003, published 2005).

How the values were obtained:
[1] = pH of 7.0
[2] = oral
[3] = system: low-density lipoprotein (LDL)-cholesterol; settings: compared with atorvastatin, simvastatin, pravastatin

SMILES | solubility in ethanol (ethanol) | solubility in methanol (methanol) | solubility in water (water) | partition coefficient (octanol/water) [1] | bioavailability [2] | reductions in low-density lipoprotein (LDL)-cholesterol [3]
CC(C)c1nc(N(C)S(C)(=O)=O)nc(-c2ccc(F)cc2)c1/C=C/[C@@H](O)C[C@@H](O)CC(=O)[O-].CC(C)c1nc(N(C)S(C)(=O)=O)nc(-c2ccc(F)cc2)c1/C=C/[C@@H](O)C[C@@H](O)CC(=O)[O-].[Ca+2] [Rosuvastatin calcium] | slightly soluble | sparingly soluble | sparingly soluble |  |  | 
CC(C)c1nc(N(C)S(C)(=O)=O)nc(-c2ccc(F)cc2)c1/C=C/[C@@H](O)C[C@@H](O)CC(=O)O [Rosuvastatin, (E)-7-[4-(4-fluorophenyl)-6 isopropyl-2-[methyl (methyl-sulfonyl)amino]pyrimidin-5-yl](3R,5S)-3,5-dihydroxyhept-6-enoic acid] |  |  |  | 0.13 | approximately 20% | greater reductions in low-density lipoprotein (LDL)-cholesterol than atorvastatin, simvastatin, and pravastatin
